Regarding `O=C(O)CC1CCC(c2ccc(C(=O)Nc3nnc(COc4ccccc4)s3)cc2)CC1` (centres unmarked) [Compound 22, {4-[4-(5-phenoxymethyl[1,3,4]thiadiazol-2-ylcarbamoyl)phenyl]cyclohexyl}acetic acid], the melting point amounted to 261 °C.
With `O=C(O)C[C@H]1CC[C@H](c2ccc(C(=O)Nc3nnc(CSCc4ccccc4)s3)cc2)CC1` [Compound 96, trans-{4-[4-(5-benzylsulfanylmethyl[1,3,4]thiadiazol-2-ylcarbamoyl)phenyl]cyclohexyl}-acetic acid], the melting point worked out at 234 °C.
To `O=C(CCc1nnc(NC(=O)c2ccc(O[C@H]3CC[C@@H](C(=O)O)CC3)cc2)s1)c1ccccc1` [Compound 102, cis-4-{4-[5-(3-oxo-3-phenylpropyl)[1,3,4]thiadiazol-2-ylcarbamoyl]phenoxy}cyclohexanecarboxylic acid] belongs 220 to 260 °C; to `O=C(O)CC1CCC(c2ccc(C(=O)Nc3nnc(CC4CCCC4)s3)cc2)CC1` (centres unmarked) [Compound 17, {4-[4-(5-cyclopentylmethyl[1,3,4]thiadiazol-2-ylcarbamoyl)phenyl]cyclohexyl}acetic acid], 268 °C; to `O=C(O)CC1CCC(c2ccc(C(=O)Nc3nnc(COc4ccc(F)cc4)s3)cc2)CC1` (centres unmarked) [Compound 24, (4-{4-[5-(4-fluorophenoxymethyl)[1,3,4]thiadiazol-2-ylcarbamoyl]phenyl}cyclohexyl)-acetic acid], 275 °C.
Compound `O=C(O)CC1CCC(c2ccc(C(=O)Nc3nnc(CCCc4ccc(F)cc4)s3)cc2)CC1` (centres unmarked) [Compound 23, [4-(4-{5-[3-(4-fluorophenyl)propyl][1,3,4]thiadiazol-2-ylcarbamoyl}phenyl)cyclohexyl]-acetic acid] yielded a melting point of 229 °C.
`O=C(O)CC1CCC(c2ccc(C(=O)Nc3nnc(C4CCCC4)s3)cc2)CC1` (centres unmarked) [Compound 16, {4-[4-(5-cyclopentyl[1,3,4]thiadiazol-2-ylcarbamoyl)phenyl]cyclohexyl}acetic acid] returned a melting point of 274 °C.
`O=C(O)C[C@H]1CC[C@H](c2ccc(C(=O)Nc3nnc(NC(=O)Cc4ccccc4)s3)cc2)CC1` [Compound 76, {4-[4-(5-phenylacetylamino[1,3,4]thiadiazol-2-ylcarbamoyl)phenyl]cyclohexyl}acetic acid]: the melting point is 291 °C.
To `O=C(Nc1nnc(COCC2CCCO2)s1)c1ccc(O[C@H]2CC[C@H](C(=O)O)CC2)cc1` (stereo partly drawn) [Compound 82, trans-4-{4-[5-(tetrahydrofuran-2-ylmethoxymethyl)[1,3,4]thiadiazol-2-ylcarbamoyl]-phenoxy}cyclohexanecarboxylic acid] belongs 217 to 223 °C; to `O=C(O)C[C@H]1CC[C@H](c2ccc(C(=O)Nc3nnc(NC4CCCC4)s3)cc2)CC1` [Compound 92, trans-{4-[4-(5-cyclopentylamino[1,3,4]thiadiazol-2-ylcarbamoyl)phenyl]cyclohexyl}-acetic acid], 335 °C; to `O=C(O)COC1CCC(c2ccc(C(=O)Nc3nnc(Cc4ccccc4)s3)cc2)CC1` (stereo not drawn) [Compound 46, trans-{4-[4-(5-benzyl[1.3.4]thiadiazol-2-ylcarbamoyl)phenyl]cyclohexyloxy}acetic acid], 250 to 255 °C.
`O=C(O)C=C1CCC(c2ccc(C(=O)Nc3nnc(Cc4ccccc4)s3)cc2)CC1` (centres unmarked) [Compound 42, {4-[4-(5-benzyl[1,3,4]thiadiazol-2-ylcarbamoyl)phenyl]cyclohexylidene}acetic acid]: the melting point is 255 °C.
On to `O=C(O)C[C@H]1CC[C@H](c2ccc(C(=O)Nc3nnc(Cc4cc(F)cc(F)c4)s3)cc2)CC1` [Compound 78, trans-(4-{4-[5-(3,5-difluorobenzyl)[1,3,4]thiadiazol-2-ylcarbamoyl]phenyl}cyclohexyl)-acetic acid], for which the melting point turned out to be 294 °C.
To `O=C(O)C[C@H]1CC[C@H](Oc2ccc(C(=O)Nc3nnc(Cc4ccccc4)s3)cc2)CC1` [Compound 81, trans-{4-[4-(5-benzyl[1,3,4]thiadiazol-2-ylcarbamoyl)phenoxy]cyclohexyl}acetic acid] belongs 230 to 250 °C; to `O=C(O)C[C@H]1CC[C@H](c2ccc(C(=O)Nc3nnc(C4CC(c5ccccc5)C4)s3)cc2)CC1` (stereo partly drawn) [Compound 97, trans-(4-{4-[5-(3-phenylcyclobutyl)[1,3,4]thiadiazol-2-ylcarbamoyl]phenyl}cyclohexyl)-acetic acid], 247 °C; to `CC(C)(C)c1nnc(NC(=O)c2ccc(C3CCC(CC(=O)O)CC3)cc2)s1` (centres unmarked) [Compound 14, {4-[4-(5-tert-butyl[1,3,4]thiadiazol-2-ylcarbamoyl)phenyl]cyclohexyl}acetic acid], 298 °C.
With `O=C(Nc1nnc(Cc2ccccc2)s1)c1ccc(C2CCC3(CC2)CC3C(=O)O)cc1` (centres unmarked) [Compound 43, 6-[4-(5-benzyl[1.3.4]thiadiazol-2-ylcarbamoyl)phenyl]spiro[2.5]-octane-1-carboxylic acid] the figure was 255 °C; with `O=C(O)C[C@H]1CC[C@H](c2ccc(C(=O)Nc3nnc([C@H]4C[C@@H](c5ccccc5)C4)s3)cc2)CC1` [Compound 75, trans-(4-{4-[5-(3-phenylcyclobutyl)[1,3,4]thiadiazol-2-ylcarbamoyl]phenyl}cyclohexyl)acetic acid], 258 °C.
On to `O=C(Nc1nnc(CCC2CCCC2)s1)c1ccc(O[C@H]2CC[C@@H](C(=O)O)CC2)cc1` [Compound 57, cis-4-{4-[5-(2-cyclopentylethyl)[1,3,4]thiadiazol-2-ylcarbamoyl]phenoxy}cyclohexanecarboxylic acid], for which the melting point was 270 °C.
`O=C(O)C[C@H]1CC[C@H](c2ccc(C(=O)Nc3nnc(CC4CCC(O)CC4)s3)cc2)CC1` (stereo partly drawn) [Compound 79, trans-(4-{4-[5-(4-hydroxycyclohexylmethyl)[1,3,4]thiadiazol-2-ylcarbamoyl]phenyl}-cyclohexyl)acetic acid] had a melting point greater than 250 °C.
Take `CC(C)Cc1nnc(NC(=O)c2ccc(C3CCC(CC(=O)O)CC3)cc2)s1` (centres unmarked) [Compound 19, {4-[4-(5-isobutyl[1,3,4]thiadiazol-2-ylcarbamoyl)phenyl]cyclohexyl}acetic acid]: the melting point stood at 263 °C.
In the case of `O=C(O)C[C@H]1CC[C@H](c2ccc(C(=O)Nc3nnc(CCN4CCOCC4)s3)cc2)CC1` [Compound 48, trans-(4-{4-[5-(2-morpholin-4-ylethyl)[1,3,4]thiadiazol-2-ylcarbamoyl]phenyl}cyclohexyl)acetic acid], the melting point came out at 213 °C.
With `O=C(O)C[C@H]1CC[C@H](c2ccc(C(=O)Nc3nnc(CCC(O)c4ccccc4)s3)cc2)CC1` (some centres unmarked) [Compound 84, (4-{4-[5-(3-hydroxy-3-phenylpropyl)[1.3.4]thiadiazol-2-ylcarbamoyl]-phenyl}cyclohexyl)acetic acid] the figure was 239 to 242 °C.
With `O=C(Nc1nnc(-c2cccc(Cl)c2)s1)c1ccc([C@H]2CC[C@H]([C@H]3C[C@@H]3C(=O)O)CC2)cc1` [Compound 85, trans-(1S,2R)-2-(4-{4-[5-(3-chlorophenyl)[1,3,4]thiadiazol-2-ylcarbamoyl]phenyl}cyclohexyl)cyclopropanecarboxylic acid] the figure was greater than 250 °C; with `O=C(O)C[C@H]1CC[C@H](c2ccc(C(=O)Nc3nnc(CCC(=O)c4ccccc4)s3)cc2)CC1` [Compound 83, trans-(4-{4-[5-(3-oxo-3-phenylpropyl)[1,3,4]thiadiazol-2-ylcarbamoyl]phenyl}cyclohexyl)acetic acid], 240 to 268 °C.
`O=C(O)C[C@H]1CC[C@H](c2ccc(C(=O)Nc3nnc(N4CCOCC4)s3)cc2)CC1` [Compound 49, trans-{4-[4-(5-morpholin-4-yl[1,3,4]thiadiazol-2-ylcarbamoyl)phenyl]cyclohexyl}acetic acid] gave a melting point greater than 250 °C.
With `O=C(C[C@H]1CC[C@H](c2ccc(C(=O)Nc3nnc(Cc4ccccc4)s3)cc2)CC1)NCC1COCCO1` (stereo partly drawn) [Compound 93, trans-N-(5-benzyl[1,3,4]thiadiazol-2-yl)-4-(4-{[([1,4]dioxan-2-ylmethyl)carbamoyl]-methyl}cyclohexyl)benzamide] the figure was 281 °C; with `O=C(O)C[C@H]1CC[C@H](c2ccc(C(=O)Nc3nnc(C[S+]([O-])Cc4ccccc4)s3)cc2)CC1` (stereo partly drawn) [Compound 95, trans-{4-[4-(5-phenylmethanesulfinylmethyl[1.3.4]thiadiazol-2-ylcarbamoyl)phenyl]cyclohexyl}acetic acid], 241 °C.
To `O=C(Nc1nncs1)c1ccc(O[C@H]2CC[C@@H](C(=O)O)CC2)cc1` [Compound 61, cis-4-[4-([1,3,4]thiadiazol-2-ylcarbamoyl)phenoxy]cyclohexanecarboxylic acid] belongs 277 °C.

Usually melting point stands for the temperature, or range, at which the solid turns liquid.

The record behind these values is patent US8546391B2, “Thiadiazole and oxadiazole derivatives, preparation thereof and therapeutic use thereof” (Sanofi, priority 2009, dated 2013).
